Experimental data taken from patent US5041355A, “High contrast photographic element including an aryl sulfonamidophenyl hydrazide containing ethyleneoxy groups” (Eastman Kodak Company, priority 1990, dated 1991).

Assay: relative speed and contrast of silver halide coatings containing nucleator and incorporated booster, exposed and processed in developer
Settings: for Relative Speed: 1 minute at 35° C., developer pH 10.5; for lower scale activity (speed): in words
Description: Each coating used in the following examples was prepared on a polyester support, using a mono-dispersed 0.24 μm AgBrI (2.5 mol % iodide) iridium-doped emulsion at 3.51 g/m^2 Ag, 2.54 g gel/m^2, and 1.08 g latex/m^2 where the latex is a copolymer of methyl acrylate, 2-acrylamido-2-methylpropane sulfonic acid, and 2-acetoacetoxyethylmethylacrylate. The silver halide emulsion was spectrally sensitized with 214 mg/Ag mol of anhydro-5,5'-dichloro-9-ethyl-3,3'-di-(3-sulfopropyl)oxacarbocyanine hydroxide, triethylene salt and the emulsion layer was overcoated with gelatin containing polymethylmethacrylate beads. The nucleating agent was added as a methanol solution to the emulsion melts at a level in millimoles (mM) per mole of silver as hereinafter indicated. An "incorporated booster" was added as a methanol solution in an amount of 64.6 milligrams per square meter of photographic element. The compound employed as the "incorporated booster" is represented by the formula: [drawing 8] where Pr represents n-propyl. Coatings were exposed for five seconds to a 3000° K. tungsten light source and processed for 1 minute at 35° C. in the developer solution.
To prepare the developer solution, a concentrate was prepared from the following ingredients:
The concentrate was diluted at a ratio of one part of concentrate to two parts of water to produce a working strength developing solution with a pH of 10.5.

[1] = concentration of nucleator 1.0 mM/Ag mole
[2] = concentration of nucleator 2.0 mM/Ag mole

Structure (SMILES) | speed compared with Test 2 (Test 7 (1.0 mM/Ag mole) versus Test 2 (2.0 mM/Ag mole)) | Relative Speed [1] | Relative Speed [2] | lower scale activity (speed) | Relative Speed (concentration of nucleator 1.9 mM/Ag mole)
CCCCCCCOCCOCCOCCOCCOCCOCCOCCOCCOCCOc1ccc(S(=O)(=O)Nc2ccc(NNC=O)cc2)cc1 [hydrazide I-4] | somewhat greater speed | 105 | 110 | beneficial effects upon lower scale activity (speed) | 
CCCCCOCCOCCOCCOCCOc1ccc(S(=O)(=O)Nc2ccc(NNC=O)cc2)cc1OCCOCCOCCOCCOCCCCC [hydrazide I-8] |  | 98 |  | beneficial effects upon lower scale activity (speed) | 105
CC(C)c1ccc(C(C)C)c(S(=O)(=O)Nc2ccc(NNC=O)cc2)c1 [reference compound] |  | 87 | 100 |  | 
CCCCCCCCOCCOCCOc1ccc(S(=O)(=O)Nc2ccc(NNC=O)cc2)cc1 [reference compound] |  | 87 | 93 |  | 
